Where two headings read alike, the source gives them in different places.
Experiments:
[1] = system: TRIM31 mRNA; assay: TRIM31 mRNA expression by RT-qPCR in PA/OA-induced L02 cells; assay type: cell-based, human; details: for fold induction at 100 µM: Homo sapiens
Method: Palmitic acid/oleic acid (PA/OA) was used to induce the decrease of TRIM31 mRNA expression in human hepatocyte L02 cells. The cells were divided into control group and drug group. The drug group was treated with a concentration of 100 μmol/L compound, and the expression level of TRIM31 mRNA was detected by RT-qPCR. The expression level of TRIM31 mRNA in the drug group divided by that in the control group (Qdrug/Qctrl) was used to evaluate the ability of the compounds to promote TRIM31 expression. […]

[2] = system: Mice with a NASH phenotype (THTG-HFHF); assay: Carminic acid in mice with a NASH phenotype (THTG-HFHF), liver mRNA and protein levels; assay type: in vivo; details: 16 weeks
Description: (§1) To further investigate the protective effects of Trim31 on liver steatosis, a nonalcoholic steatohepatitis (NASH) mice model was established in accordance with previous reports (Xu Min-Xuan,Tan Jun, et al., Journal of Hazardous Materials, 2020, 400: 123158). The THTG mice were then fed with HFHF diet (14% protein, 42% fat, 44% carbohydrates, 0.2% cholesterol and with a total of 42 g/L of carbohydreate mixed in drinking water at a ratio of 55% fructose and 45% sucrose by weight) for 16 weeks to produce phenotype of NASH. Also, the NTG mice used in this design as controls and were synchronously allowed to ad libitum access to this diet for 16 weeks.
(§2) Based on the effective protective effect of Trim31 in NAFLD, we accordingly investigated the therapeutic feasibility and effect of targeting the Trim31-Rhbdf2-MAP3K7 pathway in the development and progression of NASH. The THTG mice were then fed with an HFHF diet containing 14% protein, 42% fat, 44% carbohydrates, and 0.2% cholesterol and with a total of 42 g/L of carbohydrate mixed in drinking water at a ratio of 55% fructose and 45% sucrose by weight, for 16 weeks to generate mice with a NASH phenotype (THTG-HFHF).
Mice with a NASH phenotype (THTG-HFHF) were constructed according to the protocol described in Example 10. The control group (Ctrl), NASH-THTG group (Fru), low dose group (CAL, 0.5% CA+Fru), high dose group (CAH, 1% CA+Fru) were set up. The drug group was treated with 0.5% and 1% carminic acid (CA) by gavage.

[3] = system: Mice with a NASH phenotype (THTG-HFHF); assay: Fisetin in mice with a NASH phenotype (THTG-HFHF), liver mRNA levels; assay type: in vivo; details: 16 weeks
Description: as §1, §2
Mice with a NASH phenotype (THTG-HFHF) were constructed according to the protocol described in Example 10. A control group (Ctrl), a NASH group (THTG), and three drug groups (FIS) were set up. The three drug groups (FIS) were treated with 20 mg/kg, 40 mg/kg and 80 mg/kg fisetin (FIS) by gavage.

[4] = system: Mice with a NASH phenotype (THTG-HFHF); assay: Betacyanin in mice with a NASH phenotype (THTG-HFHF), liver protein expression; assay type: in vivo; details: 0.2 g/kg mixed with feed, 16 weeks
Description: as §1, §2
Mice with a NASH phenotype (THTG-HFHF) were constructed according to the protocol described in Example 10. A control group (Ctrl), a NASH group (THTG), and a drug group (BCN) were set up. The drug group was fed with 0.2 g/kg betacyanin (BCN) mixed with feed.

[5] = 100 μmol/L compound, PA/OA-induced L02 cells, RT-qPCR, read-out: Qdrug/Qctrl (TRIM31 mRNA expression level, drug group divided by control group)
[6] = 100 μmol/L compound, PA/OA-induced L02 cells, RT-qPCR
[7] = L02, read-out: Qdrug/Qctrl (TRIM31 mRNA expression level, drug group divided by control group)

Compound | fold induction at 100 µM [1, 5] | Qdrug/Qctrl (TRIM31 mRNA expression level, drug group divided by control group) [1, 6] [fold] | further results
Cc1c(C(=O)O)c(O)cc2c1C(=O)c1c(O)c([C@@H]3O[C@H](CO)[C@@H](O)[C@H](O)[C@H]3O)c(O)c(O)c1C2=O [Carminic acid] | 2.78 |  | Collagen I mRNA level in liver ([2]; 0.5% and 1% CA by gavage): significantly decreased; Keap1 protein in liver ([2]; 0.5% and 1% CA by gavage): significantly decreased; MMP-9 mRNA level in liver ([2]; 0.5% and 1% CA by gavage): significantly decreased; TGF-β1 mRNA level in liver ([2]; 0.5% and 1% CA by gavage): significantly decreased; TRIM31 protein expression in liver ([2]; 0.5% and 1% CA by gavage): significantly increased; α-SMA mRNA level in liver ([2]; 0.5% and 1% CA by gavage): significantly decreased; liver fibrosis and inflammation ([2]; gavage): effectively alleviated; these indexes (fibrosis genes, Keap1, TRIM31) versus control group ([2]; high dose group (CAH, 1% CA)): close to the normal level of the control group
O=c1c(O)c(-c2ccc(O)c(O)c2)oc2cc(O)ccc12 [Fisetin] | 3.27 |  | Collagen I mRNA level in liver ([3]; 20, 40 and 80 mg/kg by gavage): significantly decreased; Fibronectin mRNA level in liver ([3]; 20, 40 and 80 mg/kg by gavage): significantly decreased; TGF-β1 mRNA level in liver ([3]; 20, 40 and 80 mg/kg by gavage): significantly decreased; TRIM31 mRNA level in liver ([3]; 20, 40 and 80 mg/kg by gavage): significantly increased; α-SMA mRNA level in liver ([3]; 20, 40 and 80 mg/kg by gavage): significantly decreased; liver fibrosis and inflammation ([3]; gavage): significantly alleviated; these indexes (fibrosis gene and TRIM31 mRNA levels) versus control group ([3]; high dose group (80 mg/kg)): close to the normal level of the control group
O[C@H]1CCN2Cc3ccccc3N=C12 [Peganine] |  | 1.34 | 
C[C@H]1CC[C@@H]2N(C1)C[C@H]1[C@@H]3C[C@H]4[C@@H](C[C@H](O)[C@H]5C[C@@H](O)CC[C@@]54C)[C@@H]3CC[C@@H]1[C@]2(C)O [Peimine] |  | 1.31 | 
Oc1ccc(-c2[o+]c3cc(O)cc(O)c3cc2O)cc1 [Pelargonidin] | 2.78 |  | 
CC(C)(S)[C@@H](N)C(=O)O [Penicillamine, reference compound] |  |  | fold induction at 100 µM [1, 7]: 1.72
O=C(/C=C/C=C/c1ccc2c(c1)OCO2)N1CCCCC1 [Piperine] |  |  | fold induction at 100 µM [1, 7]: 1.8
Nc1cccc2c1C(=O)N(C1CCC(=O)NC1=O)C2=O (centres unmarked) [Pomalidomide, reference compound] | 1.49 |  | 
O=c1c(-c2ccc(O)cc2)coc2c([C@@H]3O[C@H](CO)[C@@H](O)[C@H](O)[C@H]3O)c(O)ccc12 [Puerarin] | 2.72 |  | 
O=c1c(O)c(-c2ccc(O)c(O)c2)oc2cc(O)cc(O)c12 [Quercetin] | 3.38 |  | 
CNC(=O)c1cc(Oc2ccc(NC(=O)Nc3ccc(Cl)c(C(F)(F)F)c3)c(F)c2)ccn1 [Regorafenib, reference compound] | 2.79 |  | 
Oc1ccc(C=Cc2cc(O)cc(O)c2)cc1 [Resveratrol] |  |  | fold induction at 100 µM [1, 7]: 3.66
CC[C@H]1CN2CC[C@]3(C(=O)Nc4ccccc43)[C@@H]2C[C@@H]1/C(=C\OC)C(=O)OC [Rhynchophylline] |  |  | fold induction at 100 µM [1, 7]: 1.92
C[C@@H]1O[C@@H](OC[C@H]2O[C@@H](Oc3c(-c4ccc(O)c(O)c4)oc4cc(O)cc(O)c4c3=O)[C@H](O)[C@@H](O)[C@@H]2O)[C@H](O)[C@H](O)[C@H]1O [Rutin] | 2.86 |  | 
O=c1cc(-c2ccc(O)cc2)oc2cc(O)c(O)c(O)c12 [Scutellarein] |  |  | fold induction at 100 µM [1, 7]: 3.2
COC(=O)C1=CO[C@@H](C)[C@H]2Cn3ccc4c5ccccc5nc-4c3C[C@H]12 [Serpentine] |  | 1.33 | 
COc1cc(C2Oc3cc([C@H]4Oc5cc(O)cc(O)c5C(=O)[C@@H]4O)ccc3OC2CO)ccc1O (some centres unmarked) [Silibinin] | 3.12 |  | 
O=C1CCC[C@@H]2[C@H]3CCCN4CCC[C@@H](CN12)[C@@H]34 [Sophocarpidine] |  | 1.30 | 

Compound | fold induction at 100 µM [1, 5] | Qdrug/Qctrl (TRIM31 mRNA expression level, drug group divided by control group) [1, 6] [fold] | further results
CNC(=O)c1cc(Oc2ccc(NC(=O)Nc3ccc(Cl)c(C(F)(F)F)c3)cc2)ccn1 [Sorafenib, reference compound] | 2.86 |  | 
C[C@H](CCC(=O)NCCS(=O)(=O)O)[C@H]1CC[C@H]2[C@@H]3[C@H](O)C[C@@H]4C[C@H](O)CC[C@]4(C)[C@H]3CC[C@]12C [Taurochenodeoxycholic acid] |  | 2.51 | 
C[C@H](CCC(=O)NCCS(=O)(=O)O)[C@H]1CC[C@H]2[C@@H]3[C@@H](O)C[C@@H]4C[C@H](O)CC[C@]4(C)[C@H]3CC[C@]12C [Tauroursodeoxycholic acid, reference compound] | 2.77 |  | 
COc1cc2c(cc1OC)[C@@H]1Cc3ccc(OC)c(OC)c3CN1CC2 [Tetrahydropalmatine] |  |  | fold induction at 100 µM [1, 7]: 1.76
COc1ccc2cc1Oc1ccc(cc1)C[C@H]1c3cc(c(OC)cc3CCN1C)Oc1c(OC)c(OC)cc3c1[C@H](C2)N(C)CC3 [Tetrandrine] | 1.56 |  | 
O=C1CCC(N2C(=O)c3ccccc3C2=O)C(=O)N1 (centres unmarked) [Thalidomide, reference compound] |  |  | fold induction at 100 µM [1, 7]: 1.88
COc1cc(-c2cc(=O)c3c(O)cc(O)cc3o2)cc(OC)c1O [Tricin] |  |  | fold induction at 100 µM [1, 7]: 2.9
C[C@H](CCC(=O)O)[C@H]1CC[C@H]2[C@@H]3[C@@H](O)C[C@@H]4C[C@H](O)CC[C@]4(C)[C@H]3CC[C@]12C [Ursodesoxycholic acid, reference compound] | 2.85 |  | 
COc1c(O)cc(O)c2c(=O)cc(-c3ccccc3)oc12 [Wogonin] | 3.05 |  | 
O=c1cc(-c2ccc(O)c(O)c2)oc2cc(O[C@@H]3O[C@H](CO)[C@@H](O)[C@H](O)[C@H]3O)cc(O)c12 [luteolin 7-O-β-D-glucoside] |  | 2.83 | 
Anthocyanidin |  | 3.68 | 
Betacyanin |  | 3.14 | Collagen I protein expression level in liver [4]: significantly reduced; Keap1 protein expression level in liver [4]: significantly reduced; TGF-β1 protein expression level in liver [4]: significantly reduced; TRIM31 protein expression in liver [4]: increased; liver fibrosis and inflammation [4]: effectively alleviated
Breviscapine |  | 3.29 | 
Catechin |  | 3.21 | 
Cynarascoloside C |  | 2.34 | 
Orixine |  | 1.69 | 
Proanthocyanidin |  | 3.12 | 
Punicosides |  | 2.64 | 
